Source: US20230027066A1 (Urovant Sciences GmbH, priority 2019, published 2023)

What was measured:
[1] = test system: males and females with OAB; assay: Phase 3 study of vibegron 50 mg and 100 mg, 12 weeks, efficacy; type: in vivo, human
[2] = Phase 1 multiple-dose study in healthy subjects, maximum MA4 heart rate; type: in vivo, human; conditions: for Maximum MA4 HR (maximum change from baseline in moving average of heart rate over 4 hours postdose), LS mean (90% CI) / Maximum MA4 HR, difference from placebo (90% CI): Day 14
Procedure: More intensive assessments of heart rate and blood pressure were performed in healthy volunteers in several Phase 1 studies. […] Doses ranged from 25 to 400 mg once daily for 7 to 28 days depending on the cohort. Least squares mean and 90% confidence intervals of maximum change from baseline in moving average of heart rate over 4 hours postdose (MA4 HR) are presented in Table 7.

[3] = Phase 1 program safety (16 Phase 1 studies); type: in vivo; conditions: single doses 2 to 600 mg, multiple doses 25 to 400 mg up to 28 days
Source text: Safety data from 16 Phase 1 studies, which include 15 completed Phase 1 studies and 1 study that was terminated early (this study was terminated for reasons unrelated to efficacy or safety) was collected.

[4] = drug interaction study of vibegron and rifampin, pharmacokinetics; type: in vivo, human
[5] = vibegron exposure in special populations (renal impairment, CYP3A/P-gp inhibitor, elderly, females); type: in vivo, human
[6] = Phase 1 ABPM study, ambulatory blood pressure and heart rate in OAB subjects, 28 days; type: in vivo, human; conditions: 75 mg; FAS
Procedure: The objectives and endpoints were as described below. “Mean daytime” ABPM endpoints are calculated as the mean of all valid ABPM readings while the subject was awake during the 24-hour monitoring session. “Mean 24 hr” ABPM endpoints are calculated as the mean of all valid ABPM readings during the 24 hr monitoring session.
For the analysis of the ABPM endpoints (CFB to Day 29 of systolic and diastolic blood pressure, and heart rate), a generalized linear model (GLM) was used. […] The analysis model for each efficacy endpoint included terms for treatment, age group (≤55 vs >55 years), sex (Male vs Female), and pre-existing hypertension (Yes vs No), and baseline score.
Primary inferences were drawn from treatment differences for the CFB at Day 29 from the GLM. […] To test the primary hypothesis in Section 85, the upper limit of the two-sided 90% confidence interval was compared to 3.5, and the null hypothesis was rejected if the upper limit was strictly less than 3.5.
The 24-mean ambulatory baseline for systolic and diastolic blood pressure, and heart rate was the arithmetic mean of all valid measurements between the time of cuff-fitting on Day −1 to cuff-removal on Day 1. The 24-hour mean at Day 29 was arithmetic mean of all valid measurements between the time of cuff-fitting on Day 28 to cuff removal on Day 29.
The maximum SBP, DBP and HR in the tmax window at baseline was the maximum of the hourly means of valid measurements from 0.5 to 6.5 hours after the time of cuff fitting on Day −1. On Day 28, the maximum SBP, DBP and HR in the tmax window was the maximum of the hourly means of valid measurements from 0.5 to 6.5 hours after dose.
The mean daytime ambulatory baseline for systolic and diastolic blood pressure, and heart rate was the arithmetic mean of all measurements taken during the time interval in which the subject was awake. The same definition was applied to Day 29 measurements.

[7] = vibegron 75 mg single dose + rifampin 600 mg QD
[8] = vibegron 75 mg single dose alone

O=C(Nc1ccc(C[C@@H]2CC[C@H]([C@H](O)c3ccccc3)N2)cc1)[C@@H]1CCc2nccc(=O)n21 [Vibegron, (6S)-N-[4-[[(2S,5R)−5-[(R)-hydroxy(phenyl)methyl]pyrrolidin−2-yl]methyl]phenyl]−4-oxo−7,8-dihydro−6H-pyrrolo[1,2-a]pyrimidine−6-carboxamide]
Micturitions: LS mean placebo adjusted change from baseline (95% CI) at Week 12 ([1]; vibegron 50 mg once daily): −0.86 (−1.12, −0.60)
Total incontinence episodes: LS mean placebo adjusted change from baseline (95% CI) at Week 12 ([1]; vibegron 50 mg once daily): −0.30 (−0.49, −0.12)
Urge urinary incontinence episodes: LS mean placebo adjusted change from baseline (95% CI) at Week 12 ([1]; vibegron 50 mg once daily): −0.27 (−0.44, −0.10)
Urgency episodes: LS mean placebo adjusted change from baseline (95% CI) at Week 12 ([1]; vibegron 50 mg once daily): −0.51 (−0.76, −0.25)
Micturitions: LS mean placebo adjusted change from baseline (95% CI) at Week 12 ([1]; vibegron 100 mg once daily): −0.81 (−1.07, −0.55)
Total incontinence episodes: LS mean placebo adjusted change from baseline (95% CI) at Week 12 ([1]; vibegron 100 mg once daily): −0.43 (−0.61, −0.24)
Urge urinary incontinence episodes: LS mean placebo adjusted change from baseline (95% CI) at Week 12 ([1]; vibegron 100 mg once daily): −0.39 (−0.55, −0.22)
Urgency episodes: LS mean placebo adjusted change from baseline (95% CI) at Week 12 ([1]; vibegron 100 mg once daily): −0.67 (−0.93, −0.42)
Maximum MA4 HR (maximum change from baseline in moving average of heart rate over 4 hours postdose), LS mean (90% CI) ([2]; vibegron 25 mg once daily): 1.47 (−3.24, 6.17) bpm
Maximum MA4 HR, difference from placebo (90% CI) ([2]; vibegron 25 mg once daily): −1.60 (−7.09, 3.88) bpm
Maximum MA4 HR (maximum change from baseline in moving average of heart rate over 4 hours postdose), LS mean (90% CI) ([2]; vibegron 50 mg once daily): 1.50 (−2.79, 5.79) bpm
Maximum MA4 HR, difference from placebo (90% CI) ([2]; vibegron 50 mg once daily): −1.57 (−6.70, 3.56) bpm
maximum MA4 HR, difference from placebo ([2]; vibegron 100 mg): < 1 bpm
Maximum MA4 HR (maximum change from baseline in moving average of heart rate over 4 hours postdose), LS mean (90% CI) ([2]; vibegron 100 mg once daily): 3.28 (−1.02, 7.57) bpm
Maximum MA4 HR, difference from placebo (90% CI) ([2]; vibegron 100 mg once daily): 0.21 (−4.93, 5.34) bpm
Maximum MA4 HR (maximum change from baseline in moving average of heart rate over 4 hours postdose), LS mean (90% CI) ([2]; vibegron 150 mg once daily): 3.17 (−1.13, 7.46) bpm
Maximum MA4 HR, difference from placebo (90% CI) ([2]; vibegron 150 mg once daily): 0.10 (−5.04, 5.23) bpm
Maximum MA4 HR (maximum change from baseline in moving average of heart rate over 4 hours postdose), LS mean (90% CI) ([2]; vibegron 200 mg once daily): 5.67 (0.96, 10.37) bpm
Maximum MA4 HR, difference from placebo (90% CI) ([2]; vibegron 200 mg once daily): 2.60 (−2.89, 8.08) bpm
Maximum MA4 HR (maximum change from baseline in moving average of heart rate over 4 hours postdose), LS mean (90% CI) ([2]; vibegron 300 mg once daily): 9.06 (4.76, 13.35) bpm
Maximum MA4 HR, difference from placebo (90% CI) ([2]; vibegron 300 mg once daily): 5.98 (0.85, 11.12) bpm
Maximum MA4 HR (maximum change from baseline in moving average of heart rate over 4 hours postdose), LS mean (90% CI) ([2]; vibegron 400 mg once daily): 10.33 (6.04, 14.63) bpm
Maximum MA4 HR, difference from placebo (90% CI) ([2]; vibegron 400 mg once daily): 7.26 (2.13, 12.39) bpm
tolerability across the Phase 1 program [3]: generally well tolerated
AUC(0-t) ([4]; both sexes, human, in vivo, 75 mg, read-out: AUC0-t, geometric mean (% CV)): 1160 ng·h/mL
Cmax ([4]; both sexes, human, in vivo, 75 mg, read-out: Cmax, geometric mean (% CV)): 82.3 ng/mL
AUC(0-inf) ([4]; both sexes, human, in vivo, oral, 75 mg, read-out: AUC0-∞, geometric mean (% CV)): 1310 ng·h/mL
half-life ([4]; both sexes, human, in vivo, oral, 75 mg, read-out: t1/2, geometric mean (% CV) (converted)): 84 h
CL/F, geometric mean (% CV) [4, 7]: 57.3 (30.1) L/hr
V/F, geometric mean (% CV) [4, 7]: 6140 (47.0) L
CL/F, geometric mean (% CV) [4, 8]: 57.2 (39.7) L/hr
V/F, geometric mean (% CV) [4, 8]: 6930 (48.6) L
higher Cmax in elderly and females than healthy young males ([5]; elderly and females): 50-70%
mean increase in AUC in subjects with moderate renal impairment vs normal renal function ([5]; moderate renal impairment): 1.6 fold
ABPM Max (0.5-6.5 h) DBP Change from Baseline to Day 28, LSMean [6]: 0.63 mmHg
ABPM Max (0.5-6.5 h) DBP Change from Baseline to Day 28, Treatment Difference Vibegron-Placebo [6]: 1.16 mmHg
ABPM Max (0.5-6.5 h) HR Change from Baseline to Day 28, LSMean [6]: 1.76 bpm
ABPM Max (0.5-6.5 h) HR Change from Baseline to Day 28, Treatment Difference Vibegron-Placebo [6]: 1.48 bpm
ABPM Max (0.5-6.5 h) SBP Change from Baseline to Day 28, LSMean [6]: 1.96 mmHg
ABPM Max (0.5-6.5 h) SBP Change from Baseline to Day 28, Treatment Difference Vibegron-Placebo [6]: 1.67 mmHg
ABPM Mean 24 H DBP Change from Baseline to Day 28, LSMean [6]: 0.51 mmHg
ABPM Mean 24 H DBP Change from Baseline to Day 28, Treatment Difference Vibegron-Placebo [6]: −0.19 mmHg
ABPM Mean 24 H HR Change from Baseline to Day 28, LSMean [6]: 0.80 bpm
ABPM Mean 24 H HR Change from Baseline to Day 28, Treatment Difference Vibegron-Placebo [6]: 0.96 bpm
